Literature values, collected in article PMC6978833 (ACS Central Science, 2019).

Conditions: N3 of base in TAT / CGC triplets

Row | SMILES | pKa (N3 protonation)
1 | Cc1c[nH]c(=O)[nH]c1=O [thymine] | ~10
2 | Nc1cc[nH]c(=O)n1 [cytosine] | ~6.5
